These results are taken from patent US12605350B2, “Composition for preventing, ameliorating, or treating disease caused by nitration of tyrosine in proteins comprising tyrosine as effective component” (INDUSTRY-ACADEMIC COOPERATION FOUNDATION GYEONGSANG …, priority 2020, dated 2026).

Entries after “also recorded” stand apart in the source; their conditions may differ.

For experiment [1], the system named is NQO-1. As to the kind of experiment: NQO-1 gene expression in kidney (quantitative real-time PCR), renal ischemia and reperfusion. In kind it is in vivo, mouse. As to conditions: L-tyrosine 100 mg/kg oral once a day for 4 days, 24 hours after ischemia and reperfusion, vs prepared solvent. On the procedure:
(§1) C57BL/6 male mouse (23 to 25 g, KOATECH, South Korea) was allowed to have free access to diets and water in sterile breeding room with constant temperature and humidity. The animals were divided into 3 test groups, i.e., 1) Control group (Sham), 2) Renal ischemia having treatment with prepared solvent and induced reperfusion group (CMC+IR), and 3) Renal ischemia having treatment with L-tyrosine and induced reperfusion group (L-Tyr+IR).
L-Tyrosine (100 mg/kg) was suspended in 0.5% CMC (carboxymethyl cellulose). The animal was orally administered, once a day for 4 days, with L-tyrosine or the prepared solvent CMC. Thirty minutes after the oral administration on Day 4, renal ischemia was caused. Specifically, the animal abdomen was cut and renal pedicles at both sides were clamped using a Muller atraumatic vascular clamp to cause renal ischemia. After 25 minutes of blood ischemia, the clamp was removed followed by reperfusion. The control group (Sham) received the same operational procedures as above except the ischemia using clamp. […]
According to Trizol method, total RNA was extracted from kidney tissues, and cDNA was synthesized by using Revert Aid Reverse Transcription System (ThermoFisher). Quantitative PCR was carried out with CFX Connect Real-Time PCR system (Bio-Rad) by using iQ SYBR Green Super mix (Bio-Rad). […]
(In qPCR the cycle at which signal appears reflects the starting amount.)

Experiment [2] relates to nitrotyrosine protein. As to the kind of experiment: nitrotyrosine protein in liver tissues (Western blot), azoxymethane model. In kind it is in vivo, mouse. As to conditions: L-tyrosine 100 mg/kg oral for 4 days, 16 hours after the administration of AOM. On the procedure:
C57BL/6 male mouse (13-week old, KOATECH, South Korea) was allowed to have free access to diets and water in sterile breeding room with constant temperature and humidity. The animals were divided into 3 test groups, i.e., (1) Control group (Control), (2) Carboxymethyl cellulose+azoxymethane treatment group (CMC+AOM), and (3) L-Tyrosine+AOM treatment group (L-Tyr+AOM). L-Tyrosine (100 mg/kg) was suspended in 0.5% CMC (carboxymethyl cellulose). The animal was orally administered, once a day for 4 days, with L-tyrosine or the prepared solvent CMC. Two hours after the oral administration on Day 4, intraperitoneal injection of AOM (100 mg/kg, […]) was carried out. To prevent dehydration, the animal was intraperitoneally injected with […] of physiological saline, 12 hours after the administration of AOM. Four hours after the injection, the test animal was sacrificed, blood was collected from the heart, and the liver tissues were harvested.
Liver tissues were homogenized with RIPA buffer solution. After centrifuge for 15 minutes at 16,000×g, 4° C., supernatant was collected and the protein quantification was carried out by BCA method. After SDS-PAGE electrophoresis, proteins were transferred to a PVDF membrane, and then blocked with 5% skim milk. […]

The test system of experiment [3] is Cu/Zn SOD. The experiment in a line: activity of Cu/Zn SOD, renal ischemia and reperfusion. In kind it is in vivo, mouse. The conditions noted are these: L-tyrosine 100 mg/kg oral for 4 days, IR. The procedure: as §1
(§2) L-Tyrosine (100 mg/kg) was suspended in 0.5% CMC (carboxymethyl cellulose). The animal was orally administered, once a day for 4 days, with L-tyrosine or the prepared solvent CMC. Thirty minutes after the oral administration on Day 4, renal ischemia was caused. Specifically, the animal abdomen was cut and renal pedicles at both sides were clamped using a Muller atraumatic vascular clamp to cause renal ischemia. After 25 minutes of blood ischemia, the clamp was removed followed by reperfusion. The control group (Sham) received the same operational procedures as above except the ischemia using clamp. Twenty-four hours after the reperfusion, the test animal was sacrificed, blood was collected from the heart, and the tissues were harvested.

Experiment [4] deals with mouse model of epileptic seizure which has been induced to have seizure by kainic acid. The experiment in a line: ROS/RNS in hippocampal tissues after kainic acid. Type of experiment: in vivo. As to conditions: mouse survived after kainic acid, tyrosine diet vs ND. On the procedure: Hippocampus in brain tissues was added with RIPA (containing proteinase/phosphatase inhibitor), in an amount of 100 μl per 10 mg of the tissues, and then lysed for 1 minute by using glass beads and a bullet blender. Supernatant was separated by centrifuge for 15 minutes at 12,000×g, 4° C., and, after 10-fold dilution with PBS, used for measurement of ROS/RNS. Concentration of ROS/RNS was measured by using Oxiselect ROS/RNS assay kit (Cell Biolabs) according to the recommended experimental protocol.

For experiment [5], the system named is chronic immobilization stress group (STR). The experiment in a line: OFT (open field test) after chronic immobilization stress. The conditions noted are these: tyrosine-diet (TD, 181.2 mg/kg) compared to normal diet (ND). Type of experiment: in vivo, mouse. The procedure:
The animal models were divided into two groups (i.e., normal group and stress group). The animal of stress group was individually brought by force to a restrainer for 2 hours every day (i.e., between 2 PM and 4 PM) so that it was applied with chronic immobilization stress for 15 days. Change in bodyweight and food intake amount were measured every other day. The normal group and stress group were divided again into a normal diet group and a tyrosine-supplemented diet group (181.2 mg/kg), and then fed. OFT (open field test) was carried out using a rectangular box (60×60×20 cm). Mouse was placed at the center area of box (30×30 cm), and the mouse movement was followed for 5 minutes and total travel distance, center area duration, and frequency of center area entries were measured.

The test system is the same in experiment [6]. The experiment in a line: SPT (sucrose preference test) after chronic immobilization stress. Type of experiment: in vivo, mouse. The conditions noted are these: tyrosine diet (181.2 mg/kg) compared to normal diet, p<0.01. The procedure:
The animal models were divided into two groups (i.e., normal group and stress group). The animal of stress group was individually brought by force to a restrainer for 2 hours every day (i.e., between 2 PM and 4 PM) so that it was applied with chronic immobilization stress for 15 days. Change in bodyweight and food intake amount were measured every other day.
The normal group and stress group were divided again into a normal diet group and a tyrosine-supplemented diet group (181.2 mg/kg), and then fed.
For SPT (sucrose preference test), 0.1 M sucrose and water were provided for 48 hours so that the animals are habituated with them. After that, none of 0.1 M sucrose and water was provided for 24 hours, and then 0.1 M sucrose and water were provided again for 6 hours. Then, 0.1 M sucrose and water were moved to different positions for 3 hours.
After that, consumption amount of sucrose and water was measured, and the sugar preference was calculated in terms of the ratio of provided sucrose compared to total consumption amount.

The test system of experiment [7] is acute renal failure caused by kidney ischemia or reperfusion injury. As to the kind of experiment: ROS/RNS amount in mitochondria, renal ischemia and reperfusion. Type of experiment: in vivo, mouse. As to conditions: L-tyrosine 100 mg/kg oral for 4 days, IR. On the procedure:
as §1, §2

For `N[C@@H](Cc1ccc(O)cc1)C(=O)O` [L-tyrosine], the “expression of NQO-1 gene in kidney” value in experiment [1] was “statistically significant increase in the expression of NQO-1 gene”. Besides, in experiment [2], the “nitrotyrosine protein in liver tissues” value was “suppressed with statistical significance”.

For the compound `N[C@@H](Cc1ccc(O)cc1)C(=O)O` [tyrosine], the “activity of Cu/Zn SOD” value in experiment [3] was “again recovered”. Besides, the “ROS/RNS amount in hippocampal tissues” value in experiment [4] is on record as “reduced to the level of the control group; also recorded: statistically significant decrease in ROS/RNS amount”. In addition, in experiment [5], the center area duration entry was “higher”, the “frequency of center area entries” value is “higher” and the travel distance entry is listed as “higher”. Also, in experiment [6], the sugar preference entry is on record as “statistically significant increase in the sugar preference”. The “ROS/RNS amount in mitochondria” value in experiment [7] is on record as “suppressed”.
